What was measured:
[1] = tested on: mouse lungs; experiment: In vivo screen of cationic lipids: FFL mRNA-LNP pulmonary delivery, IVIS luciferase imaging; design: species or system male CD1 mice; conditions: for potency as determined by the average radiance detected in mouse lungs: FFL mRNA-LNP, single intratracheal administration, about 5 hours post-dose; for selection based on performance in the in vivo screen: about 150 cationic lipids tested; for suitability/performance in liposomes administered through pulmonary delivery via nebulization: mouse, in vivo
Procedure: In this example, various cationic lipids were tested for in vivo efficacy when mRNA encapsulated in lipid nanoparticles (mRNA-LNP) were administered to mice by pulmonary delivery. The cationic lipids were tested for both potency, as determined by levels of protein production, and tolerability, as determined by side effects associated with clearance and metabolism.
About 150 cationic lipids were tested. (FIG. 9). Each cationic lipid was used in preparing lipid nanoparticles encapsulating mRNA encoding firefly luciferase protein (FFL mRNA) according to methods known in the art. For example, suitable methods for mRNA encapsulation include methods described in International Publication Nos. WO2016/004318 and WO 2018/089801, which is hereby incorporated by reference in its entirety. The tested lipid nanoparticles comprised a lipid component consisting of a cationic lipid, a non-cationic lipid (DOPE), a PEG-modified lipid (DMG-PEG2K), and optionally cholesterol.
Lipid nanoparticle formulations comprising FFL mRNA were administered to male CD1 mice by a single intratracheal administration via nebulization using a Microsprayer®. At approximately 5 hours post-dose, the animals were dosed with luciferin by intraperitoneal injection and all animals were imaged using an IVIS imaging system to measure luciferase production in the lung. […] Some cationic lipids remarkably had greater than 50-fold increase in pulmonary protein expression as compared to other cationic lipids.

[2] = tested on: mouse lungs; experiment: as above; design: species or system male CD1 mice; conditions: pulmonary-delivered (e.g., nebulized) FFL mRNA in LNP with this cationic lipid, threshold lines in FIG. 9

SMILES | potency as determined by the average radiance detected in mouse lungs [1] | selection based on performance in the in vivo screen [1] | suitability/performance in liposomes administered through pulmonary delivery via nebulization [1] | historical radiance/expression of pulmonary-delivered FFL mRNA-LNP [2]
CCCCCCCCCCCCCCOC(=O)CC(CC(=O)OCCCCCCCCCCCCCC)(OC(=O)CCN(C)C)C(=O)OCCCCCCCCCCCCCC [TL1-04D-DMA] | particularly high potency | selected for further investigation | performed particularly well | –
CCCCCCCCCCCCC(O)CN(CCCC(=O)Oc1c(OC)cc(C(=O)OCCCN(C)C)cc1OC)CC(O)CCCCCCCCCCCC (stereo not shown) [SY-3-E14-DMAPr] | – | selected for further investigation | – | –
CCCCCCCC(=O)OCCCCCCCCCOC(=O)CC(CC(=O)OCCCCCCCCCOC(=O)CCCCCCC)(OC(=O)CCN(C)C)C(=O)OCCCCCCCCCOC(=O)CCCCCCC [TL1-10D-DMA] | – | selected for further investigation | – | –
CC(C)CCCC(C)[C@H]1CCC2C3CC=C4C[C@@H](OC(=O)CCc5c[nH]cn5)CC[C@]4(C)C3CC[C@@]21C (stereo partly shown) [ICE, imidazole cholesterol ester] | – | – | – | around 10^4 p/s/cm^2sr
CCCCC/C=C\C/C=C\CCCCCCCC(=O)OCC(COC(=O)CCCCCCC/C=C\C/C=C\CCCCC)(COC(=O)CCCCCCC/C=C\C/C=C\CCCCC)NCCS(=O)(=O)NCCCN(C)C [GL-TES-SA-DMP-E18-2] | particularly high potency | selected for further investigation | performed particularly well | –
CC(C)CCCC(C)C1CCC2C3CC=C4CC(SSCCNC(=N)N)CCC4(C)C3CCC12C (stereo not shown) [HGT4002] | – | selected for further investigation | – | –
CCCCCCCCC(O)CN(CCCC(=O)OCCN1CC(C)N(CCOC(=O)CCCN(CC(O)CCCCCCCC)CC(O)CCCCCCCC)CC1C)CC(O)CCCCCCCC (stereo not shown) [HEP-E3-E10] | particularly high potency | selected for further investigation | performed particularly well | –
CCCCCCCCOC(=O)CC(CC(=O)OCCCCCCCC)(OC(=O)CCN(C)C)C(=O)OCCCCCCCC [TL1-01D-DMA, trioctyl 2-((3-(dimethylamino)propanoyl)oxy)propane-1,2,3-tricarboxylate] | particularly high potency | selected for further investigation | performed particularly well | –
CCCCC/C=C\C/C=C\CCCCCCCC(=O)OCC(COC(=O)CCCCCCC/C=C\C/C=C\CCCCC)(COC(=O)CCCCCCC/C=C\C/C=C\CCCCC)NCCS(=O)(=O)NCCN(C)C [GL-TES-SA-DME-E18-2, 2-((2-(N-(2-(dimethylamino)ethyl)sulfamoyl)ethyl)amino)-2-((((9Z,12Z)-octadeca-9,12-dienoyl)oxy)methyl)propane-1,3-diyl (9Z,9′Z,12Z,12′Z)-bis(octadeca-9,12-dienoate)] | particularly high potency | selected for further investigation | performed particularly well | –
CCCCCCCCC(O)CN(CCCCC(=O)OCCN1CC(C)N(CCOC(=O)CCCCN(CC(O)CCCCCCCC)CC(O)CCCCCCCC)CC1C)CC(O)CCCCCCCC (stereo not shown) [HEP-E4-E10] | particularly high potency | selected for further investigation | performed particularly well | –
